# Literature values as cited in article PMC7770979 (Molecular Metabolism, 2020).
# System: IR
substance,measurement,value
SerA12 substitution by alanine: insulin with SerA12 substitution by alanine (ref 34),"Affinity to IR, % of insulin",36%
